Reference: the kinase profiling compilation of Christmann-Franck et al. (2016)

Legend:
Experiment in all cases: KINOMEscan competition binding
Details in all cases: compound 10.0 µM
LCK (human) = LCK (human) (UniProt P06239)
RPS6KA2 KD1 (human) = RPS6KA2 KD1 (human) (UniProt Q15349)
NUAK2 (human) = NUAK2 (human) (UniProt Q9H093)
ACVR1 (human) = ACVR1 (human) (UniProt Q04771)
CAMKK2 (human) = CAMKK2 (human) (UniProt Q96RR4)
CSNK1G2 (human) = CSNK1G2 (human) (UniProt P78368)
STK32C (human) = STK32C (human) (UniProt Q86UX6)
BMPR1B (human) = BMPR1B (human) (UniProt O00238)
CAMK2A (human) = CAMK2A (human) (UniProt Q9UQM7)
AKT3 (human) = AKT3 (human) (UniProt Q9Y243)
MAP3K7 (human) = MAP3K7 (human) (UniProt O43318)
CLK2 (human) = CLK2 (human) (UniProt P49760)
MAP3K9 (human) = MAP3K9 (human) (UniProt P80192)
FGFR4 (human) = FGFR4 (human) (UniProt P22455)
GSK3A (human) = GSK3A (human) (UniProt P49840)
NLK (human) = NLK (human) (UniProt Q9UBE8)
AAK1 (human) = AAK1 (human) (UniProt Q2M2I8)
IKBKB (human) = IKBKB (human) (UniProt O14920)
AKT2 (human) = AKT2 (human) (UniProt P31751)
NEK2 (human) = NEK2 (human) (UniProt P51955)
PKMYT1 (human) = PKMYT1 (human) (UniProt Q99640)
CDK19 (human) = CDK19 (human) (UniProt Q9BWU1)
STK35 (human) = STK35 (human) (UniProt Q8TDR2)
STK4 (human) = STK4 (human) (UniProt Q13043)
PIP5K1A (human) = PIP5K1A (human) (UniProt Q99755)
EPHA6 (human) = EPHA6 (human) (UniProt Q9UF33)
FES (human) = FES (human) (UniProt P07332)
CDK15 (human) = CDK15 (human) (UniProt Q96Q40)
TGFBR1 (human) = TGFBR1 (human) (UniProt P36897)
MAPK10 (human) = MAPK10 (human) (UniProt P53779)
MERTK (human) = MERTK (human) (UniProt Q12866)
PIM3 (human) = PIM3 (human) (UniProt Q86V86)
TAOK3 (human) = TAOK3 (human) (UniProt Q9H2K8)
STK24 (human) = STK24 (human) (UniProt Q9Y6E0)
SIK1 (human) = SIK1 (human) (UniProt P57059)
MYLK4 (human) = MYLK4 (human) (UniProt Q86YV6)
AURKC (human) = AURKC (human) (UniProt Q9UQB9)
PTK2 (human) = PTK2 (human) (UniProt Q05397)
MYO3A (human) = MYO3A (human) (UniProt Q8NEV4)
EPHB4 (human) = EPHB4 (human) (UniProt P54760)

PKMYT1 (human), sequence (Q99640 whole entry, looked up): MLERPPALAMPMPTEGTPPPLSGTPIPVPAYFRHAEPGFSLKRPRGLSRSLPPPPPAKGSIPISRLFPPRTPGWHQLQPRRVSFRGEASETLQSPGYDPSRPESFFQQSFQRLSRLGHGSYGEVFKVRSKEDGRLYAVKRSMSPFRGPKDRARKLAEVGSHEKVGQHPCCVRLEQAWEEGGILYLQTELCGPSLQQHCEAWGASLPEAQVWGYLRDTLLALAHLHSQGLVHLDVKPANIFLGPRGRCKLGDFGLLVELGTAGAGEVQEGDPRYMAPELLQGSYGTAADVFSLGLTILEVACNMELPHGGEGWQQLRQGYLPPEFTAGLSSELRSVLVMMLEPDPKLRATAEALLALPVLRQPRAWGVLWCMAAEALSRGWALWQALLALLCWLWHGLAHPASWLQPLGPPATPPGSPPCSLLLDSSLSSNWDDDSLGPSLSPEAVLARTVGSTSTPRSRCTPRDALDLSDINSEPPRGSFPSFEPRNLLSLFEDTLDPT
BMPR1B (human), sequence (O00238 whole entry, looked up): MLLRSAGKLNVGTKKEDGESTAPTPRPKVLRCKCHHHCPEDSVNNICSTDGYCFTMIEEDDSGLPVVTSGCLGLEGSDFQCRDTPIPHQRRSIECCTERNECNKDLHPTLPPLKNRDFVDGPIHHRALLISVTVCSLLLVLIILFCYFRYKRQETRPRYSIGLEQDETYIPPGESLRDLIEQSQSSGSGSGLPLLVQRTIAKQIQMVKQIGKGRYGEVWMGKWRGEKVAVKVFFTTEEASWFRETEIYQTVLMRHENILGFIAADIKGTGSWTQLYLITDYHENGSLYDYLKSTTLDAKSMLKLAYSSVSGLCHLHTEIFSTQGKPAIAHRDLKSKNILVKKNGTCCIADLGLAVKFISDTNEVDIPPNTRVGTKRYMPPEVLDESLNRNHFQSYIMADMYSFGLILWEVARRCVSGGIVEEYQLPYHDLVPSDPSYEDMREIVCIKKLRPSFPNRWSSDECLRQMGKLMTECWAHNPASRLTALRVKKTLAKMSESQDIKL
PTK2 (human), sequence (Q05397 whole entry, looked up): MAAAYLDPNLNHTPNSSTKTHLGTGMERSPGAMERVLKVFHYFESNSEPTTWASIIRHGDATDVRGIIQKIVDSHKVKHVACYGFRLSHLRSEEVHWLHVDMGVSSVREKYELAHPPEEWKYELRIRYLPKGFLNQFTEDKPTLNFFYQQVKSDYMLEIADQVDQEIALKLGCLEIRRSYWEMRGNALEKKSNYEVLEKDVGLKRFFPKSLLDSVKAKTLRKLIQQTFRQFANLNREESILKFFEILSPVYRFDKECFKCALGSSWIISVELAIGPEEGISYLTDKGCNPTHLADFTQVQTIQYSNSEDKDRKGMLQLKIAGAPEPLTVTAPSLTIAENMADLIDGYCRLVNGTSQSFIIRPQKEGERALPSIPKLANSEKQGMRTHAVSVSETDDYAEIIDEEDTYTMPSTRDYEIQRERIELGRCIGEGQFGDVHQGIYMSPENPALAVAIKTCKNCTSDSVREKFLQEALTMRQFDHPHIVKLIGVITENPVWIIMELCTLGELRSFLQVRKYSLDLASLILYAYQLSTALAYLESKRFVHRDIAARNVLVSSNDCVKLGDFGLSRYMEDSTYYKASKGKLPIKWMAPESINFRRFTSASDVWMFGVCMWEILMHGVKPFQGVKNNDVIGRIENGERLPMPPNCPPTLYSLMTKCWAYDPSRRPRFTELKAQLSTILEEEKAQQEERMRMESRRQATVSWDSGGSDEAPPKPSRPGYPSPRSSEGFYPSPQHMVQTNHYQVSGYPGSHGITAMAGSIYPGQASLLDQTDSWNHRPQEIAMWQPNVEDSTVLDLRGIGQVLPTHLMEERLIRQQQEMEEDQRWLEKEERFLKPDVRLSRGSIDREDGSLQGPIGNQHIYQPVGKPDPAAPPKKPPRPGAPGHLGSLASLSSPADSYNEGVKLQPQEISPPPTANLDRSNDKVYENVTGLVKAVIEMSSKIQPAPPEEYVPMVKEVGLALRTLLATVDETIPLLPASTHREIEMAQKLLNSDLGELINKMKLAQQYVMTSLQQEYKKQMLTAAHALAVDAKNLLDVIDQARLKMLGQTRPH
NUAK2 (human), sequence (Q9H093 whole entry, looked up): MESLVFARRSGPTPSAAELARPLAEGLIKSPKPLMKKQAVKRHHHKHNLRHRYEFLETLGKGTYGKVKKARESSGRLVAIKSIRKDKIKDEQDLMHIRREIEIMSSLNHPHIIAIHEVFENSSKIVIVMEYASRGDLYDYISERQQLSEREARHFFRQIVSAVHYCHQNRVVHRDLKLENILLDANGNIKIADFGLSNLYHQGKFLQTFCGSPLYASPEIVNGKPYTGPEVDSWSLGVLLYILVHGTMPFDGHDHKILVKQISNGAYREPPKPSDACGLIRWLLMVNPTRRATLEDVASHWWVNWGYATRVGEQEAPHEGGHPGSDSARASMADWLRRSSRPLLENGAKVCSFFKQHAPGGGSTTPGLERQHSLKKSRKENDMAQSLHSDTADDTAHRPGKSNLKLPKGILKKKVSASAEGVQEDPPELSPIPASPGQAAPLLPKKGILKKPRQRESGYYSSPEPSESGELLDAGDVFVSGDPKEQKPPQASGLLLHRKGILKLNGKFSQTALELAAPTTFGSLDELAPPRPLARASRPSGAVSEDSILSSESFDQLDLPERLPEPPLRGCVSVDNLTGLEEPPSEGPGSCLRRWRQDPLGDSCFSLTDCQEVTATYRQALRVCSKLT
FES (human), sequence (P07332 whole entry, looked up): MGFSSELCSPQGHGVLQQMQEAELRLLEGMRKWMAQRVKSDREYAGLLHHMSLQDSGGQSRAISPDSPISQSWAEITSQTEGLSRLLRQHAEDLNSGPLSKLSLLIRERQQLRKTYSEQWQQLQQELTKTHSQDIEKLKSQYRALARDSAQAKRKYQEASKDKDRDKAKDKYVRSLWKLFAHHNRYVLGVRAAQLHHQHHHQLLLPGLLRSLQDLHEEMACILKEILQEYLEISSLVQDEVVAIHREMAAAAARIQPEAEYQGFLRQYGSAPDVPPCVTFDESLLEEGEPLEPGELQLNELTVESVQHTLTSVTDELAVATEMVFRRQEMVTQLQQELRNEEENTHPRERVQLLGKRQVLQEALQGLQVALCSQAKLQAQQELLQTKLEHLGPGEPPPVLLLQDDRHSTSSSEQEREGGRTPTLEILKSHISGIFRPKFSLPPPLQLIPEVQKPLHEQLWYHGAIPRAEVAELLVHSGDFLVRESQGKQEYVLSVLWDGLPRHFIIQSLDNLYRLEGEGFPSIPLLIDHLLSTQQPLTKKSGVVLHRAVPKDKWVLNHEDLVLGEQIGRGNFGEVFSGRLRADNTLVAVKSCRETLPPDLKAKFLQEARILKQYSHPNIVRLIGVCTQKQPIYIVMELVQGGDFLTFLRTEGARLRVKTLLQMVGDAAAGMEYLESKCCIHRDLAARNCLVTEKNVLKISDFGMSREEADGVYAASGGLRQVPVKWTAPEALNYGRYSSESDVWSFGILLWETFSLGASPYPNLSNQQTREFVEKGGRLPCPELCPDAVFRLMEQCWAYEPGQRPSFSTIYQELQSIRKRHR
AAK1 (human), sequence (Q2M2I8 whole entry, looked up): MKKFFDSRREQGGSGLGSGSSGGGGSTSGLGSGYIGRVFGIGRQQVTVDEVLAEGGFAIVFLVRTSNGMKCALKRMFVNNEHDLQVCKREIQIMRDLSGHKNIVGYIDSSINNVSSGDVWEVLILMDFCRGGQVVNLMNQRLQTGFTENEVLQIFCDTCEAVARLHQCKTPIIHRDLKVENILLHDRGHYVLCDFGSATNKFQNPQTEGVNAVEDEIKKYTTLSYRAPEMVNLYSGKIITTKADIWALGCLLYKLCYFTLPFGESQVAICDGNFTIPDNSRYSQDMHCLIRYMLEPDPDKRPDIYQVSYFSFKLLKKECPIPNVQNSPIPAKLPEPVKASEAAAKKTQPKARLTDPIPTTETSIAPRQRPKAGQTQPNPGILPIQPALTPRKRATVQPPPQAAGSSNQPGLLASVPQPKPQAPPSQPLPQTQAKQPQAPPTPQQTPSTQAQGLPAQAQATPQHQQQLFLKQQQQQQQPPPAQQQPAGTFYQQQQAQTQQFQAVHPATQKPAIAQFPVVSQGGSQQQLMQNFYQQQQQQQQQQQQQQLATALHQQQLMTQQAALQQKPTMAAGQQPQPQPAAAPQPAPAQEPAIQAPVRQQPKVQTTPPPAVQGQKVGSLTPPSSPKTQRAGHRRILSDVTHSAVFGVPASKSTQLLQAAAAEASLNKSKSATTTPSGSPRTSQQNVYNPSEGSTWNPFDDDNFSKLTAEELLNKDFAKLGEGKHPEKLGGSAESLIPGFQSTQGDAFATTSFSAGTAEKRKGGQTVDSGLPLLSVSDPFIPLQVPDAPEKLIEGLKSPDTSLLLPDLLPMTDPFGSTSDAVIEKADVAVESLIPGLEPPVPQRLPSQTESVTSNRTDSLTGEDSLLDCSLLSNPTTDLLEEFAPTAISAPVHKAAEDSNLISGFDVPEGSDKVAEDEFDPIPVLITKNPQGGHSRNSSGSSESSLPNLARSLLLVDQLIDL
MAPK10 (human), sequence (P53779 whole entry, looked up): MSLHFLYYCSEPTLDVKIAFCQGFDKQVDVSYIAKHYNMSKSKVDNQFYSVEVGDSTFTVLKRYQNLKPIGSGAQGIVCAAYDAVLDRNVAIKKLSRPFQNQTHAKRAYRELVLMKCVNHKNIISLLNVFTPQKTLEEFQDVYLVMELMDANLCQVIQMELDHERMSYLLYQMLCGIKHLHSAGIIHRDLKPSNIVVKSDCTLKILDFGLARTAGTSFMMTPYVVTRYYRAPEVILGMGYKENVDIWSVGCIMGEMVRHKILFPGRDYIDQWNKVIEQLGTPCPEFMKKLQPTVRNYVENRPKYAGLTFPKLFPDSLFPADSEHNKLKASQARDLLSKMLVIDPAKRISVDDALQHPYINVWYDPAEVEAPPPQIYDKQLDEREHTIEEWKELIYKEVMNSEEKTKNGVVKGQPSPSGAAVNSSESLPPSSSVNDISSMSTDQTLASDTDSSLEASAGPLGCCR

Row | SMILES | kinase still bound, per cent of control (LCK (human)) [%] | kinase still bound, per cent of control (RPS6KA2 KD1 (human)) [%] | kinase still bound, per cent of control (NUAK2 (human)) [%] | kinase still bound, per cent of control (ACVR1 (human)) [%] | kinase still bound, per cent of control (CAMKK2 (human)) [%] | kinase still bound, per cent of control (CSNK1G2 (human)) [%] | kinase still bound, per cent of control (STK32C (human)) [%] | kinase still bound, per cent of control (BMPR1B (human)) [%] | kinase still bound, per cent of control (CAMK2A (human)) [%] | kinase still bound, per cent of control (AKT3 (human)) [%] | kinase still bound, per cent of control (MAP3K7 (human)) [%] | kinase still bound, per cent of control (CLK2 (human)) [%] | kinase still bound, per cent of control (MAP3K9 (human)) [%] | kinase still bound, per cent of control (FGFR4 (human)) [%] | kinase still bound, per cent of control (GSK3A (human)) [%] | kinase still bound, per cent of control (NLK (human)) [%] | kinase still bound, per cent of control (AAK1 (human)) [%] | kinase still bound, per cent of control (IKBKB (human)) [%] | kinase still bound, per cent of control (AKT2 (human)) [%] | kinase still bound, per cent of control (NEK2 (human)) [%] | other results
1 | Nc1ccc(-c2ccc3ncc4ccc(=O)n(-c5cccc(C(F)(F)F)c5)c4c3c2)cn1 | 100 | 100 | 46 | 86 | 99 | 100 | 100 | 86 | 83 | 100 | 48 | 15 | 100 | 100 | 100 | 86 | 71 | 89 | 100 | 100 | kinase still bound, per cent of control (PKMYT1 (human)): 94%; kinase still bound, per cent of control (CDK19 (human)): 100%; kinase still bound, per cent of control (STK35 (human)): 92%; kinase still bound, per cent of control (STK4 (human)): 100%; kinase still bound, per cent of control (PIP5K1A (human)): 78%; kinase still bound, per cent of control (EPHA6 (human)): 100%; kinase still bound, per cent of control (FES (human)): 100%; kinase still bound, per cent of control (CDK15 (human)): 94%; kinase still bound, per cent of control (TGFBR1 (human)): 100%; kinase still bound, per cent of control (MAPK10 (human)): 78%; kinase still bound, per cent of control (MERTK (human)): 87%; kinase still bound, per cent of control (PIM3 (human)): 100%; kinase still bound, per cent of control (TAOK3 (human)): 80%; kinase still bound, per cent of control (STK24 (human)): 98%; kinase still bound, per cent of control (SIK1 (human)): 79%; kinase still bound, per cent of control (MYLK4 (human)): 97%; kinase still bound, per cent of control (AURKC (human)): 100%; kinase still bound, per cent of control (PTK2 (human)): 75%; kinase still bound, per cent of control (MYO3A (human)): 100%; kinase still bound, per cent of control (EPHB4 (human)): 100%
2 | O=C1Nc2ccc(I)cc2/C1=C/c1cc(Br)c(O)c(Br)c1 | 38 | 58 | 75 | 31 | 9 | 100 | 98 | 27 | 20 | 100 | 67 | 15 | 47 | 100 | 100 | 56 | 5.2 | 100 | 90 | 100 | kinase still bound, per cent of control (PKMYT1 (human)): 79%; kinase still bound, per cent of control (CDK19 (human)): 63%; kinase still bound, per cent of control (STK35 (human)): 100%; kinase still bound, per cent of control (STK4 (human)): 52%; kinase still bound, per cent of control (PIP5K1A (human)): 19%; kinase still bound, per cent of control (EPHA6 (human)): 100%; kinase still bound, per cent of control (FES (human)): 95%; kinase still bound, per cent of control (CDK15 (human)): 100%; kinase still bound, per cent of control (TGFBR1 (human)): 10%; kinase still bound, per cent of control (MAPK10 (human)): 60%; kinase still bound, per cent of control (MERTK (human)): 100%; kinase still bound, per cent of control (PIM3 (human)): 2%; kinase still bound, per cent of control (TAOK3 (human)): 87%; kinase still bound, per cent of control (STK24 (human)): 97%; kinase still bound, per cent of control (SIK1 (human)): 83%; kinase still bound, per cent of control (MYLK4 (human)): 14%; kinase still bound, per cent of control (AURKC (human)): 71%; kinase still bound, per cent of control (PTK2 (human)): 98%; kinase still bound, per cent of control (MYO3A (human)): 2.5%; kinase still bound, per cent of control (EPHB4 (human)): 100%
